Data published in patent publication US9539257B2, “Method of treating cancer” (NOVARTIS AG, priority 2009, dated 2017).

Experiments:
[1] = On-treatment liver chemistry (ALT, TBL, ALP), confirmatory study PGx population, lapatinib plus letrozole phase III trial; type: in vivo, human
HLA-DQA1*0201 = tested on: HLA-DQA1*0201
Source text: (§1) Germline DNA was extracted from peripheral blood (QiAmp DNA Blood Kit, Qiagen, Valencia, Calif.). This study evaluated candidate gene and genome-wide screening, performed in parallel, to detect case-control association signals in the exploratory cohort. Class I and II HLA genes (seven genes to 4-digit and three genes to 2-digit resolution) were typed by Laboratory Corporation of America (Burlington, N.C.) and Histogenetics (Ossining, N.Y.), or at GSK using the LABType® SSO Typing Test (One Lambda, Canoga Park, Calif.). […] Whole genome screen genotyping on the Illumina Human 1M-Duo platform was also conducted (Expression Analysis, Durham, N.C.).
(§2) For the exploratory study, initial analysis of the GWAS was done using logistic regression, carried out in PLINK (Purcell S, et al. American Journal of Human Genetics 2007; 81, 559-575) using the genotypic test option when three genotype classes were observed, or the additive test option when only two genotype classes were observed. […] In addition to the genotype term, all models included baseline ALT xULN, treatment group (for the exploratory study), and a sufficient number of principal components to account for potential confounding by population structure. Principal components were obtained from EIGENSOFT (Patterson N. et al. PLoS Genetics 2006; 2: e190), using study subjects and HapMap founders.
(§3) Genetic markers selected for confirmatory were required to achieve pre-defined p-value thresholds in the exploratory analysis of p≦0.05 for HLA markers, p≦0.01 for candidate gene markers and p≦10-4 for whole genome screen SNPs. For markers confirmed at p≦0.01, measures of potential clinical utility were evaluated. An allele or genotype(s) was designated which conferred a higher risk of ALT elevation and this was compared to the non-risk allele(s)/genotype(s) and the odds ratio (OR), positive predictive value (PPV), and negative predictive value (NPV) calculated.

HLA-DQB1*0202 = settings: Exploratory study
Source text: as §1, §2, §3

HLA-DRB1*0701 = settings: Exploratory study
Source text: as §1, §2, §3

DQA1*0201/DQB1*0201g = experiment: ALT case/non-case association with DQ2.2 serotype allele combinations, confirmatory study; type: in vivo, human
Experimental: as §3
HLA Class II peptides form heterodimer proteins where DQA1/DQB1 and DRA/DRB1 combinations create discrete antigen binding sites (Jones E Y, et al. Nature Reviews: Immunology 2006; 6; 271-282). HLA-DRA is functionally monomorphic and no further marker discrimination can be gained by evaluating specific allelic combinations. In contrast, both DQA1*0201 and DQB1*0202 are polymorphic.

UGT1A1*28 = settings: confirmation analysis, lapatinib plus letrozole arm
Experimental: Statistical analyses used for this investigation indicated the following. The two phenotypes that were evaluated were maximum on-treatment liver chemistry values for ALT and TBL with respect to the upper limit of normal. These phenotypes were evaluated in both case-control and quantitative trait analyses while key associations were examined qualitatively in the combined ALT/TBL cases. ALT and TBL cases were defined as maximum on-treatment elevations of ≧3×ULN and ≧1.5×ULN, respectively, and control subjects were defined as maximum on-treatment ALT or TBL of ≦1×ULN. […] Approximately 370 patients with an adequate, fully consented DNA sample had available clinical data for these phenotypes.

[2] = On-treatment liver chemistry (ALT, TBL, ALP), exploratory study PGx population, twelve AMBC trials
[3] = Confirmatory Study ALT Cases (N=24)
[4] = Confirmatory Study ALT Cases with HLA Data Available, at time of maximum ALT
[5] = Confirmatory Study ALT Controls (N=155)
[6] = Confirmatory Study PGx Population (1 trial, N=374), lapatinib combination with letrozole
[7] = Confirmatory Study PGx Population (N=374), lapatinib + letrozole
[8] = lapatinib plus letrozole arm of the confirmatory study
[9] = DQA1*0201/DQB1*0201g carriage, cases vs non-cases, ALT > 3 xULN, Confirmatory study
[10] = DQA1*0201/DQB1*0201g, ALT > 3 xULN threshold, Confirmatory study
[11] = Exploratory Study ALT Cases (N=37)
[12] = Exploratory Study ALT Cases with HLA Data Available, at time of maximum ALT
[13] = Exploratory Study ALT Controls (N=286)
[14] = Exploratory Study PGx Population (12 trials, N=901), lapatinib monotherapy or combinations
[15] = Exploratory Study PGx Population (N=901)

CS(=O)(=O)CCNCc1ccc(-c2ccc3ncnc(Nc4ccc(OCc5cccc(F)c5)c(Cl)c4)c3c2)o1 [lapatinib, N-(3 chloro-4-{[(3-fluorophenyl)methyl]oxy}phenyl)-6-[5-({[2 (methylsulfonyl)ethyl]amino}methyl)-2-furanyl]-4-quinazolinamine bis(4 methylbenzenesulfonate)monohydrate]
Maximum on treatment ALT xULN: Mean(SD) [1, 3]: 6.50(3.73) xULN
Maximum on treatment ALT xULN: Median [1, 3]: 4.96 xULN
N of ALT cases with Cholestatic injury type [1, 4]: 3
N of ALT cases with Hepatocellular injury type [1, 4]: 12
N of ALT cases with Mixed injury type [1, 4]: 9
Maximum on treatment ALT xULN: Mean(SD) [1, 5]: 0.66(0.19) xULN
Maximum on treatment ALT xULN: Median [1, 5]: 0.65 xULN
Maximum on treatment ALT xULN: Mean(SD) [1, 6]: 1.53 (1.97) xULN
Maximum on treatment ALT xULN: Median [1, 6]: 0.91 xULN
Maximum on treatment ALT > 3 xULN (%) [1, 7]: 9.4%
Maximum on treatment ALT > 5 xULN (%) [1, 7]: 5.1%
Maximum on treatment ALT > 8 xULN (%) [1, 7]: 2.4%
Maximum on treatment TBL xULN: Mean(SD) [1, 7]: 0.93 (1.48) xULN
Maximum on treatment TBL xULN: Median [1, 7]: 0.76 xULN
hepatobiliary adverse event cases (ALT>3x and TBL >1.5xULN, irrespective of baseline ALT), number [1, 8]: Fifteen
patients adjudicated by liver experts as probable Hy's Rule cases, number [1, 8]: two
Carriage: cases (n/N) (HLA-DQA1*0201; DQA1*0201 carriage, ALT cases (>3xULN), Exploratory study): 14/35
Carriage: controls (n/N) (HLA-DQA1*0201; DQA1*0201 carriage, ALT controls, Exploratory study): 58/283
% that carry DQA1*0201, Cholestatic (HLA-DQA1*0201; Exploratory Study ALT Cases): 25%
% that carry DQA1*0201, Hepatocellular (HLA-DQA1*0201; Exploratory Study ALT Cases): 43%
% that carry DQA1*0201, Mixed (HLA-DQA1*0201; Exploratory Study ALT Cases): 40%
N that carry DQA1*0201, Cholestatic (HLA-DQA1*0201; Exploratory Study ALT Cases): 1
N that carry DQA1*0201, Hepatocellular (HLA-DQA1*0201; Exploratory Study ALT Cases): 9
N that carry DQA1*0201, Mixed (HLA-DQA1*0201; Exploratory Study ALT Cases): 4
Carriage: cases (%) (HLA-DQB1*0202; ALT cases): (37%)
Carriage: cases (n/N) (HLA-DQB1*0202; ALT cases): 13/35
Carriage: controls (%) (HLA-DQB1*0202; ALT controls): (17%)
Carriage: controls (n/N) (HLA-DQB1*0202; ALT controls): 47/281
Carriage: cases (%) (HLA-DRB1*0701; ALT cases): (40%)
Carriage: cases (n/N) (HLA-DRB1*0701; ALT cases): 14/35
Carriage: controls (%) (HLA-DRB1*0701; ALT controls): (21%)
Carriage: controls (n/N) (HLA-DRB1*0701; ALT controls): 59/283
HLA Carrier: Cases (number) (DQA1*0201/DQB1*0201g; DQA1*0201/DQB1*0201g (DQ2.2 serotype), ALT Cases > 3 xULN, Confirmatory study): 17
NPV (CI) (DQA1*0201/DQB1*0201g; [9]): 0.976 (0.951, 0.990)
OR (CI) (DQA1*0201/DQB1*0201g; [9]): 10.2 (3.8, 30.0)
PPV (CI) (DQA1*0201/DQB1*0201g; [9]): 0.20 (0.12, 0.30)
HLA Carrier: Non Cases (number) (DQA1*0201/DQB1*0201g; [10]): 67
HLA Non-Carrier: Non Cases (number) (DQA1*0201/DQB1*0201g; [10]): 281
HLA Non-Carrier: Cases (number) (DQA1*0201/DQB1*0201g; DQA1*0201/DQB1*0201g, ALT Cases > 3 xULN, Confirmatory study): 7
DQA1*0201/DQB1*0201g allele combinations in ALT cases (DQA1*0201/DQB1*0201g; confirmatory study (17/24)): 71%
DQA1*0201/DQB1*0201g allele combinations in non-cases (DQA1*0201/DQB1*0201g; confirmatory study (67/348)): 19%
TBL cases carrying TA7/TA7 genotype (UGT1A1*28; TBL cases >=1.5xULN (n=21)): 33%
TBL controls carrying TA7/TA7 genotype (UGT1A1*28; controls (n=226)): 4%
Maximum on treatment ALT xULN: Mean(SD) [2, 11]: 6.47(6.57) xULN
Maximum on treatment ALT xULN: Median [2, 11]: 4.70 xULN
N of ALT cases with Cholestatic injury type [2, 12]: 4
N of ALT cases with Hepatocellular injury type [2, 12]: 21
N of ALT cases with Mixed injury type [2, 12]: 10
Maximum on treatment ALT xULN: Mean(SD) [2, 13]: 0.59(0.21) xULN
Maximum on treatment ALT xULN: Median [2, 13]: 0.59 xULN
Maximum on treatment ALT xULN: Mean(SD) [2, 14]: 1.29 (1.96) xULN
Maximum on treatment ALT xULN: Median [2, 14]: 0.80 xULN
Maximum on treatment ALP xULN: Mean(SD) [2, 15]: 1.34 (1.40) xULN
Maximum on treatment ALP xULN: Median [2, 15]: 0.91 xULN
Maximum on treatment ALT > 3 xULN (%) [2, 15]: 7.3%
Maximum on treatment ALT > 5 xULN (%) [2, 15]: 2.7%
Maximum on treatment ALT > 8 xULN (%) [2, 15]: 1.0%
Maximum on treatment TBL xULN: Median [2, 15]: 0.68 xULN
